One assay deals with Mcl-1 (Homo sapiens (Human), UniProt Q07820). Kind of assay: TR-FRET binding assay, FITC-Bak peptide and MBP-tagged Mcl-1. The conditions noted are these: read-out: Ki for Inhibition of Mcl-1 by TR-FRET assay. As for the experimental part:
Compounds are diluted in DMSO in a 16-point, semilog serial dilution scheme. […] The plate was mixed and incubated for 3 hours at room temperature. […] TR-FRET signal is plotted and IC50 and Ki values are calculated in the same manner as the fluorescence polarization anisotropy based competition assays.
On the technique in general: In TR-FRET formats the signal depends on donor and acceptor labels being close together.

The test system of assay [1] is H929 human cancer cell lines. Kind of assay: Cellular viability / proliferation (Cell TiterGlo, 72 h). It counts as cell-based. The conditions noted are these: Homo sapiens, NCI-H929, 72 h, read-out: GI50 on cellular proliferation of H929 human cancer cell lines, H929 cells, 72 h, Cell TiterGlo, 10% FBS. A digest of the protocol: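 Plating is at 1,000 cells/well in 10% FBS medium; after 24 h, compound is added as a 2-fold series starting at 50 μM with under 1% DMSO.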

From US11596639B2, “Substituted indole Mcl-1 inhibitors” (Vanderbilt University, priority 2016, dated 2023) come the findings set out here.

Molecules are shown by their SMILES.

Sequence of Mcl-1 (Q07820 172-327): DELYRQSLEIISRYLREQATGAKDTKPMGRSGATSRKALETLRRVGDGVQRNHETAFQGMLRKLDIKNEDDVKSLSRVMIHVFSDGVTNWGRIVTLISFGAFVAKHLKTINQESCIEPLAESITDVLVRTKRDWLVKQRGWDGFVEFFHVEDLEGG

One may read the Ki as the dissociation constant of the complex between target and ligand, obtained from inhibition or displacement. For `Cc1ccnc(Cn2c(C(=O)O)cc3cc(C)cc(N4C[C@@H](C)n5c(c(CCCOc6cc(C)c(Cl)c(C)c6)c6ccc(Cl)c(-c7c(C)ncnc7C)c65)C4=O)c32)c1` [Example 577, (R)-7-(7-chloro-10-(3-(4-chloro-3,5-dimethylphenoxy)propyl)-6-(4,6-dimethylpyrimidin-5-yl)-4-methyl-1-oxo-3,4-dihydropyrazino[1,2-a]indol-2(1H)-yl)-5-methyl-1-((4-methylpyridin-2-yl)methyl)-1H-indole-2-carboxylic acid], on Mcl-1, the inhibitory constant (Ki) is < 0.2 nM. Further, in assay [1], the GI50 stood at 230 nM.

For the compound `Cc1cc(N2C[C@@H](C)n3c(c(CCCOc4cc(C)c(Cl)c(C)c4)c4ccc(Cl)c(-c5c(C)nn(C)c5C)c43)C2=O)c2c(c1)cc(C(=O)O)n2CCOC(C)C` [Example 578, (R)-7-(7-chloro-10-(3-(4-chloro-3,5-dimethylphenoxy)propyl)-4-methyl-1-oxo-6-(1,3,5-trimethyl-1H-pyrazol-4-yl)-3,4-dihydropyrazino[1,2-a]indol-2(1H)-yl)-1-(2-isopropoxyethyl)-5-methyl-1H-indole-2-carboxylic acid], the Ki at Mcl-1 was < 0.2 nM. Besides, the GI50 in assay [1] amounted to 390 nM.

For `CCOCCn1c(C(=O)O)cc2cc(C)cc(N3C[C@@H](C)n4c(c(CCCOc5cc(C)c(Cl)c(C)c5)c5ccc(Cl)c(-c6c(C)nn(C)c6C)c54)C3=O)c21` [Example 579, (R)-7-(7-chloro-10-(3-(4-chloro-3,5-dimethylphenoxy)propyl)-4-methyl-1-oxo-6-(1,3,5-trimethyl-1H-pyrazol-4-yl)-3,4-dihydropyrazino[1,2-a]indol-2(1H)-yl)-1-(2-ethoxyethyl)-5-methyl-1H-indole-2-carboxylic acid], the Ki on Mcl-1 was < 0.2 nM. In addition, the GI50 in assay [1] was 240 nM.

On to `Cc1cc(OCCCc2c3n(c4c(-c5c(C)nc(CN6CCN(C)CC6)nc5C)c(Cl)ccc24)[C@H](C)CN(c2cn(CCN(C)C)c4ccc(C(=O)O)cc24)C3=O)cc(C)c1Cl` [Example 580, (R)-3-(7-chloro-10-(3-(4-chloro-3,5-dimethylphenoxy)propyl)-6-(4,6-dimethyl-2-((4-methylpiperazin-1-yl)methyl)pyrimidin-5-yl)-4-methyl-1-oxo-3,4-dihydropyrazino[1,2-a]indol-2(1H)-yl)-1-(2-(dimethylamino)ethyl)-1H-indole-5-carboxylic acid], for which, on Mcl-1, the Ki is < 0.2 nM. For the same compound, the GI50 in assay [1] was 960 nM.

For the compound `COCCn1cc(N2C[C@@H](C)n3c(c(CCCOc4cc(C)c(Cl)c(C)c4)c4ccc(Cl)c(-c5c(C)nn(C)c5C)c43)C2=O)c2cc(-c3ncn(CC4COC4)n3)ccc21` [Example 581, (R)-7-Chloro-10-(3-(4-chloro-3,5-dimethylphenoxy)propyl)-2-(1-(2-methoxyethyl)-5-(1-(oxetan-3-ylmethyl)-1H-1,2,4-triazol-3-yl)-1H-indol-3-yl)-4-methyl-6-(1,3,5-trimethyl-1H-pyrazol-4-yl)-3,4-dihydropyrazino[1,2-a]indol-1(2H)-one], the Ki on Mcl-1 was 3.7 nM. Besides, the GI50 in assay [1] was 250 nM.

Take `COc1ccc(N2C[C@@H](C)n3c(c(CCCOc4cc(C)c(Cl)c(C)c4)c4ccc(Cl)c(-c5c(C)nn(C)c5C)c43)C2=O)c2c1cc(C(=O)O)n2Cc1cc(C)ccn1` [Example 582, (R)-7-(7-chloro-10-(3-(4-chloro-3,5-dimethylphenoxy)propyl)-4-methyl-1-oxo-6-(1,3,5-trimethyl-1H-pyrazol-4-yl)-3,4-dihydropyrazino[1,2-a]indol-2(1H)-yl)-4-methoxy-1-((4-methylpyridin-2-yl)methyl)-1H-indole-2-carboxylic acid]: the Ki at Mcl-1 was found to be 0.28 nM. For the same compound, the GI50 in assay [1] was determined as 220 nM.

Take `Cc1ccnc(Cn2c(C(=O)O)cc3cc(OCCN(C)C)cc(N4C[C@@H](C)n5c(c(CCCOc6cc(C)c(Cl)c(C)c6)c6ccc(Cl)c(-c7c(C)ncnc7C)c65)C4=O)c32)c1` [Example 584, (R)-7-(7-chloro-10-(3-(4-chloro-3,5-dimethylphenoxy)propyl)-6-(4,6-dimethylpyrimidin-5-yl)-4-methyl-1-oxo-3,4-dihydropyrazino[1,2-a]indol-2(1H)-yl)-5-(2-(dimethylamino)ethoxy)-1-((4-methylpyridin-2-yl)methyl)-1H-indole-2-carboxylic acid]: the inhibition constant Ki at Mcl-1 is < 0.2 nM. In assay [1], the GI50 came out at 1000 nM.

As for `Cc1cc(OCCCc2c3n(c4c(-c5c(C)nn(C)c5C)c(Cl)ccc24)[C@H](C)CN(c2cn(C)c4ncc(C(=O)O)nc24)C3=O)cc(C)c1Cl` [Example 585, (R)-7-(7-chloro-10-(3-(4-chloro-3,5-dimethylphenoxy)propyl)-4-methyl-1-oxo-6-(1,3,5-trimethyl-1H-pyrazol-4-yl)-3,4-dihydropyrazino[1,2-a]indol-2(1H)-yl)-5-methyl-5H-pyrrolo[2,3-b]pyrazine-2-carboxylic acid], the inhibition constant (Ki) at Mcl-1 is < 0.2 nM. Moreover, in assay [1], the GI50 is 1500 nM.

For the compound `Cc1cc(OCCCc2c3n(c4c(-c5c(C)nn(C)c5C)c(Cl)ccc24)[C@H](C)CN(c2cn(CCN4CCCC4)c4ccc(-c5ncn(C)n5)cc24)C3=O)cc(C)c1Cl` [Example 586, (R)-7-Chloro-10-(3-(4-chloro-3,5-dimethylphenoxy)propyl)-4-methyl-2-(5-(1-methyl-1H-1,2,4-triazol-3-yl)-1-(2-(pyrrolidin-1-yl)ethyl)-1H-indol-3-yl)-6-(1,3,5-trimethyl-1H-pyrazol-4-yl)-3,4-dihydropyrazino[1,2-a]indol-1(2H)-one], the inhibition constant Ki at Mcl-1 is 2.6 nM. In assay [1], the GI50 was 400 nM.

Turning to `COCCn1c(C(=O)O)cc2c(OC)ccc(N3C[C@@H](C)n4c(c(CCCOc5cc(C)c(Cl)c(C)c5)c5ccc(Cl)c(-c6c(C)nn(C)c6C)c54)C3=O)c21` [Example 587, (R)-7-(7-chloro-10-(3-(4-chloro-3,5-dimethylphenoxy)propyl)-4-methyl-1-oxo-6-(1,3,5-trimethyl-1H-pyrazol-4-yl)-3,4-dihydropyrazino[1,2-a]indol-2(1H)-yl)-4-methoxy-1-(2-methoxyethyl)-1H-indole-2-carboxylic acid], the inhibitory constant (Ki) at Mcl-1 was < 0.2 nM. Further, the GI50 in assay [1] was < 200 nM.

In the case of `Cc1cc(OCCCc2c3n(c4c(-c5c(C)nn(C)c5C)c(Cl)ccc24)[C@H](C)CN(c2cc(OCc4ccccc4)cc4cc(C(=O)O)n(Cc5ccccn5)c24)C3=O)cc(C)c1Cl` [Example 588, (R)-5-(benzyloxy)-7-(7-chloro-10-(3-(4-chloro-3,5-dimethylphenoxy)propyl)-4-methyl-1-oxo-6-(1,3,5-trimethyl-1H-pyrazol-4-yl)-3,4-dihydropyrazino[1,2-a]indol-2(1H)-yl)-1-(pyridin-2-ylmethyl)-1H-indole-2-carboxylic acid], the Ki on Mcl-1 is 1.4 nM. In assay [1], the GI50 amounted to 1400 nM.

With `COCCn1cc(N2C[C@@H](C)n3c(c(CCCOc4cc(C)c(Cl)c(C)c4)c4ccc(Cl)c(-c5c(C)nn(C)c5C)c43)C2=O)c2cc(-c3ncn(CC4CC4)n3)ccc21` [Example 589, (R)-7-Chloro-10-(3-(4-chloro-3,5-dimethylphenoxy)propyl)-2-(5-(1-(cyclopropylmethyl)-1H-1,2,4-triazol-3-yl)-1-(2-methoxyethyl)-1H-indol-3-yl)-4-methyl-6-(1,3,5-trimethyl-1H-pyrazol-4-yl)-3,4-dihydropyrazino[1,2-a]indol-1(2H)-one], the Ki at Mcl-1 is 1.7 nM. The GI50 in assay [1] was 1100 nM.

Regarding `Cc1cc(OCCCc2c3n(c4c(-c5c(C)nn(C)c5C)c(Cl)ccc24)[C@H](C)CN(c2cc(OCCN(C)C)cc4cc(C(=O)O)n(Cc5ccccn5)c24)C3=O)cc(C)c1Cl` [Example 590, (R)-7-(7-chloro-10-(3-(4-chloro-3,5-dimethylphenoxy)propyl)-4-methyl-1-oxo-6-(1,3,5-trimethyl-1H-pyrazol-4-yl)-3,4-dihydropyrazino[1,2-a]indol-2(1H)-yl)-5-(2-(dimethylamino)ethoxy)-1-(pyridin-2-ylmethyl)-1H-indole-2-carboxylic acid], the inhibition constant (Ki) at Mcl-1 is < 0.2 nM. Moreover, the GI50 in assay [1] was determined as 670 nM.

Regarding `Cc1cc(OCCCc2c3n(c4c(-c5c(C)nn(C)c5C)c(Cl)ccc24)[C@H](C)CN(c2cc(C(=O)N4CCOCC4)cc4cc(C(=O)O)n(C)c24)C3=O)cc(C)c1Cl` [Example 591, (R)-7-(7-chloro-10-(3-(4-chloro-3,5-dimethylphenoxy)propyl)-4-methyl-1-oxo-6-(1,3,5-trimethyl-1H-pyrazol-4-yl)-3,4-dihydropyrazino[1,2-a]indol-2(1H)-yl)-1-methyl-5-(morpholine-4-carbonyl)-1H-indole-2-carboxylic acid], the inhibitory constant (Ki) at Mcl-1 was < 0.2 nM. For the same compound, in assay [1], the GI50 turned out to be 2800 nM.

For `COc1ccc(N2C[C@@H](C)n3c(c(CCCOc4cc(C)c(Cl)c(C)c4)c4ccc(Cl)c(-c5c(C)nn(C)c5C)c43)C2=O)c2c1cc(C(=O)O)n2Cc1cccc(C)n1` [Example 593, (R)-7-(7-chloro-10-(3-(4-chloro-3,5-dimethylphenoxy)propyl)-4-methyl-1-oxo-6-(1,3,5-trimethyl-1H-pyrazol-4-yl)-3,4-dihydropyrazino[1,2-a]indol-2(1H)-yl)-4-methoxy-1-((6-methylpyridin-2-yl)methyl)-1H-indole-2-carboxylic acid], the Ki at Mcl-1 was < 0.2 nM. Also, the GI50 in assay [1] is < 200 nM.

Regarding `COCCn1c(C(=O)O)cc2cc(C)cc(N3C[C@@H](C)n4c(c(CCCOc5cc(C)c(Cl)c(C)c5)c5ccc(Cl)c(-c6c(C)ncnc6C)c54)C3=O)c21` [Example 594, (R)-7-(7-chloro-10-(3-(4-chloro-3,5-dimethylphenoxy)propyl)-6-(4,6-dimethylpyrimidin-5-yl)-4-methyl-1-oxo-3,4-dihydropyrazino[1,2-a]indol-2(1H)-yl)-1-(2-methoxyethyl)-5-methyl-1H-indole-2-carboxylic acid], on Mcl-1, the inhibition constant Ki was < 0.2 nM. In addition, the GI50 in assay [1] was 230 nM.
